Test results published in ChEMBL document CHEMBL1240356, “Efficacy profiles of daptomycin for treatment of invasive and noninvasive pulmonary infections with Streptococcus pneumoniae” (2010).
Calls of active or inactive are those of the source. No cut-off for these calls is given here.

Key:
[1] = system: Streptococcus pneumoniae; test: Antibacterial activity against 5 x 10^6 CFU Streptococcus pneumoniae serotype 2 infected in semitherapeutic C57BL/6 mouse model assessed as bacterial count in lung at 6 mg/kg, ip measured after 2 days post infection; type: functional; settings: route intraperitoneal
[2] = system: Streptococcus pneumoniae; test: Antibacterial activity against low dose 5 x 10^6 CFU Streptococcus pneumoniae serotype 2 infected in semitherapeutic C57BL/6 mouse model assessed as bacterial count in lung at 6 mg/kg, ip measured after 5 day post infection; type: functional; settings: route intraperitoneal
[3] = system: Streptococcus pneumoniae; test: Antibacterial activity against low dose 5 x 10^6 CFU Streptococcus pneumoniae serotype 2 infected in semitherapeutic C57BL/6 mouse model assessed as bacterial count in lung at 6 mg/kg, ip measured after 10 day post infection; type: functional; settings: route intraperitoneal
[4] = system: Streptococcus pneumoniae; test: Antibacterial activity against 5 x 10^6 CFU Streptococcus pneumoniae serotype 2 infected in semitherapeutic C57BL/6 mouse model assessed as bacterial count in blood at 6 mg/kg, ip measured after 1 day post infection; type: functional; settings: route intraperitoneal
[5] = system: Streptococcus pneumoniae; test: Antibacterial activity against 5 x 10^6 CFU Streptococcus pneumoniae serotype 2 infected in semitherapeutic C57BL/6 mouse model assessed as reduction of bacteremia at 6 mg/kg, ip measured after 2 days post infection; type: functional, organism-based; set-up: dose 6 mg/kg
[6] = system: Streptococcus pneumoniae; test: Antibacterial activity against low dose 5 x 10^6 CFU Streptococcus pneumoniae serotype 2 infected in semitherapeutic C57BL/6 mouse model assessed as reduction of bacteremia at 6 mg/kg, ip measured after 10 day post infection; type: functional, organism-based; set-up: dose 6 mg/kg
[7] = system: Streptococcus pneumoniae; test: Antibacterial activity against high dose 1.5 x 10^7 CFU Streptococcus pneumoniae serotype 2 infected in semitherapeutic C57BL/6 mouse model assessed as bacterial count in lung at 6 mg/kg, ip measured after 10 day post infection; type: functional; settings: route intraperitoneal
[8] = system: Streptococcus pneumoniae; test: Antibacterial activity against high dose 1.5 x 10^7 CFU Streptococcus pneumoniae serotype 2 infected in semitherapeutic C57BL/6 mouse model assessed as bacterial count in spleen at 6 mg/kg, ip measured after 2 days post infection; type: functional; settings: route intraperitoneal
[9] = system: Streptococcus pneumoniae; test: Antibacterial activity against high dose 1.5 x 10^7 CFU Streptococcus pneumoniae serotype 2 infected in semitherapeutic C57BL/6 mouse model assessed as bacterial count in liver at 6 mg/kg, ip measured after 1 day post infection; type: functional; settings: route intraperitoneal
[10] = system: Streptococcus pneumoniae; test: Antibacterial activity against high dose 1.5 x 10^7 CFU Streptococcus pneumoniae serotype 2 infected in semitherapeutic C57BL/6 mouse model assessed as reduction of bacteremia at 6 mg/kg, ip measured after 10 day post infection; type: functional, organism-based; set-up: dose 6 mg/kg
[11] = system: Streptococcus pneumoniae; test: Antibacterial activity against high dose 1.5 x 10^7 CFU Streptococcus pneumoniae serotype 2 infected in therapeutic C57BL/6 mouse model assessed as bacterial count in lung at 6 mg/kg, ip measured after 5 day post infection; type: functional; settings: route intraperitoneal
[12] = system: Streptococcus pneumoniae; test: Antibacterial activity against high dose 1.5 x 10^7 CFU Streptococcus pneumoniae serotype 2 infected in therapeutic C57BL/6 mouse model assessed as bacterial count in blood at 6 mg/kg, ip measured after 3 days post infection; type: functional; settings: route intraperitoneal
[13] = system: Streptococcus pneumoniae; test: Antibacterial activity against high dose 1.5 x 10^7 CFU Streptococcus pneumoniae serotype 2 infected in therapeutic C57BL/6 mouse model assessed as bacterial count in blood at 6 mg/kg, ip measured after 4 days post infection; type: functional; settings: route intraperitoneal
[14] = system: Streptococcus pneumoniae; test: Antibacterial activity against low dose 5 x 10^6 CFU Streptococcus pneumoniae serotype 19 infected in semitherapeutic C57BL/6 mouse model assessed as bacterial count in lung at 6 mg/kg, ip measured after 3 days post infection; type: functional; settings: route intraperitoneal
[15] = system: Streptococcus pneumoniae; test: Antibacterial activity against low dose 5 x 10^6 CFU Streptococcus pneumoniae serotype 19 infected in semitherapeutic C57BL/6 mouse model assessed as bacteremic mouse at 6 mg/kg, ip measured after 3 days post infection; type: functional, organism-based; set-up: dose 6 mg/kg
[16] = system: Streptococcus pneumoniae; test: Antibacterial activity against low dose 5 x 10^6 CFU Streptococcus pneumoniae serotype 19 infected in semitherapeutic C57BL/6 mouse model assessed as bacteremic mouse at 6 mg/kg, ip measured after 5 day post infection; type: functional, organism-based; set-up: dose 6 mg/kg
[17] = system: Streptococcus pneumoniae; test: Antibacterial activity against low dose 5 x 10^6 CFU Streptococcus pneumoniae serotype 19 infected in semitherapeutic C57BL/6 mouse model assessed as bacteremic mouse at 6 mg/kg, ip measured after 10 day post infection; type: functional, organism-based; set-up: dose 6 mg/kg
[18] = system: Streptococcus pneumoniae; test: Antibacterial activity against high dose 1.5 x 10^7 CFU Streptococcus pneumoniae serotype 19 infected in semitherapeutic C57BL/6 mouse model assessed as bacterial count in lung at 6 mg/kg, ip measured after 1 day post infection; type: functional; settings: route intraperitoneal
[19] = system: Streptococcus pneumoniae; test: Antibacterial activity against high dose 1.5 x 10^7 CFU Streptococcus pneumoniae serotype 19 infected in semitherapeutic C57BL/6 mouse model assessed as bacterial count in lung at 6 mg/kg, ip measured after 2 days post infection; type: functional; settings: route intraperitoneal
[20] = system: Streptococcus pneumoniae; test: Antibacterial activity against high dose 1.5 x 10^7 CFU Streptococcus pneumoniae serotype 19 infected in semitherapeutic C57BL/6 mouse model assessed as bacterial count in lung at 6 mg/kg, ip measured after 5 day post infection; type: functional; settings: route intraperitoneal
[21] = system: Streptococcus pneumoniae; test: Antibacterial activity against high dose 1.5 x 10^7 CFU Streptococcus pneumoniae serotype 19 infected in semitherapeutic C57BL/6 mouse model assessed as bacteremic mice at 6 mg/kg, ip measured after 4 days post infection; type: functional, organism-based; set-up: dose 6 mg/kg
[22] = system: Streptococcus pneumoniae; test: Antibacterial activity against high dose 1.5 x 10^7 CFU Streptococcus pneumoniae serotype 19 infected in semitherapeutic C57BL/6 mouse model assessed as bacteremic mice at 6 mg/kg, ip measured after 5 day post infection; type: functional, organism-based; set-up: dose 6 mg/kg
[23] = system: Streptococcus pneumoniae; test: Antibacterial activity against 1.5 x 10^7 CFU Streptococcus pneumoniae serotype 2 infected in therapeutic C57BL/6 mouse model assessed as survival rate at 6 mg/kg, ip qd beginning 2 days post infection measured after 3 days post infection; type: functional; settings: route intraperitoneal
[24] = system: Streptococcus pneumoniae; test: Antibacterial activity against 1.5 x 10^7 CFU Streptococcus pneumoniae serotype 2 infected in therapeutic C57BL/6 mouse model assessed as survival rate at 20 mg/kg, ip qd beginning 2 days post infection measured after 3 days post infection; type: functional; settings: route intraperitoneal
[25] = system: Streptococcus pneumoniae; test: Antibacterial activity against 1.5 x 10^7 CFU Streptococcus pneumoniae serotype 19 infected in therapeutic C57BL/6 mouse model assessed as survival rate at 6 mg/kg, ip qd beginning at time of infection measured after 6 days post infection; type: functional; settings: route intraperitoneal
[26] = system: Streptococcus pneumoniae; test: Antibacterial activity against 1.5 x 10^7 CFU Streptococcus pneumoniae serotype 19 infected in therapeutic C57BL/6 mouse model assessed as effect on lung permeability at 6 mg/kg, ip measured on day 3 post infection; type: functional, organism-based; set-up: dose 6 mg/kg
[27] = system: Streptococcus pneumoniae; test: Antibacterial activity against 1.5 x 10^7 CFU Streptococcus pneumoniae serotype 2 infected in therapeutic C57BL/6 mouse model assessed as effect on lung permeability at 6 mg/kg, ip measured on day 3 post infection; type: functional, organism-based; set-up: dose 6 mg/kg
[28] = system: Streptococcus pneumoniae; test: Antibacterial activity against 1.5 x 10^7 CFU Streptococcus pneumoniae serotype 19 infected in therapeutic C57BL/6 mouse model assessed as effect on leukocytes infiltration in BALF at 6 mg/kg, ip measured on day 3 post infection; type: functional, organism-based; set-up: dose 6 mg/kg
[29] = system: Streptococcus pneumoniae; test: Antibacterial activity against 1.5 x 10^7 CFU Streptococcus pneumoniae serotype 2 infected in therapeutic C57BL/6 mouse model assessed as increase in compound level in BALF at 6 mg/kg, ip measured on day 3 post infection; type: functional, organism-based; set-up: dose 6 mg/kg
[30] = system: Streptococcus pneumoniae; test: Antibacterial activity against 1.5 x 10^7 CFU Streptococcus pneumoniae serotype 19 infected in therapeutic C57BL/6 mouse model assessed as increase in serum compound level at 6 mg/kg, ip measured on day 3 post infection; type: functional, organism-based; set-up: dose 6 mg/kg

Structure (SMILES): CCCCCCCCCC(=O)N[C@@H](Cc1c[nH]c2ccccc12)C(=O)N[C@H](CC(N)=O)C(=O)N[C@@H](CC(=O)O)C(=O)N[C@@H]1C(=O)NCC(=O)N[C@@H](CCCN)C(=O)N[C@@H](CC(=O)O)C(=O)N[C@H](C)C(=O)N[C@@H](CC(=O)O)C(=O)NCC(=O)N[C@H](CO)C(=O)N[C@@H]([C@H](C)CC(=O)O)C(=O)N[C@@H](CC(=O)c2ccccc2N)C(=O)O[C@@H]1C
- log10cfu [1]: 3.6
- log10cfu [2]: 3.2
- log10cfu [3]: 2.5
- log10cfu [4]: 2
- Activity [5]: Active
- Activity [6]: Active
- log10cfu [7]: 2.9
- log10cfu [8]: 0.4
- log10cfu [9]: 1.2
- Activity [10]: Active
- log10cfu [11]: 2.8
- log10cfu [12]: 2.3
- log10cfu [13]: 2.6
- log10cfu [14]: 5.5
- Activity [15]: Active
- Activity [16]: Active
- Activity [17]: Active
- log10cfu [18]: 6.4
- log10cfu [19]: 6.2
- log10cfu [20]: 4.7
- Activity [21]: Active
- Activity [22]: Active
- Activity [23]: 70%
- Activity [24]: 60%
- Activity [25]: 40%
- Activity [26]: Active
- Activity [27]: Active
- Activity [28]: Active
- Activity [29]: inactive
- Activity [30]: Active
